Source: patent US10076509B2, “Nested particles and the use thereof for coordinated delvery of active agents” (Board of Regents, the University of Texas System, priority 2015, dated 2018)

Legend:
[1] = Finite Element modeling of release kinetics from nested nanoparticles
Source text: Due to the fact that the physico-chemical properties of the core and shell, as well as bodipy and rhodamine, are different, a computational method accounting for diffusivities and molecule partitioning was used to analyze release kinetics from nested nanoparticles. Use of the model helped determine that sequential release may be achieved and controlled not only by different diffusion properties in different phases, but also partitioning. […] The model estimated experimental release curves by using partitioning coefficients of 5.0×109 and 2.2×1011 for bodipy and rhodamine, respectively (FIG. 4a). The half-time of release of the maximum releasable material was estimated to be 15 h for the shell and 46 h for the core. The diffusivity of rhodamine inside the PLGA nanoparticle matrix was estimated to be 4×10^−10 cm2/s, which was approximately 104 times lower than that in water, while that of bodipy in the shell was reduced by only 5 times compared to that in water. […] This is illustrated in the distinct phases of dominant fluxes over time (FIG. 4b).
A Finite Element (FE) method was used to model drug diffusion. The model included partitioning conditions at the surfaces, in this case between the core and the surrounding fluid. Thus, aside from the incremental-iterative system of mass balance equations (Kojic et al., 2008; Ziemys et al., 2011; Kojic et al., 2011):
the partitioning condition was included ΔNs/ΔNf=ΔCs/Δf=P Here, M and K are element mass and diffusion matrices, ΔC represents nodal concentration increments, Q^ext and Q^tnt are external and internal nodal mass fluxes; ΔNs and ΔNf are number of molecules of solid and fluid (per FE node) passing during time step Δt, and ΔCs and ΔCf are the corresponding concentration changes at boundary nodes with partitioning property; P is partitioning coefficient; and i specifies the equilibrium iteration counter. The important material parameter in the above balance equation is the diffusion coefficient D entering the diffusion matrix K:
[formula] where NI, NJ are interpolation functions and V is element volume. […]

[2] = Release kinetics from nested nanoparticles (fluorophore release, zeta potential over time); assay type: physicochemical; settings: PBS pH 7.4, 37° C.
Procedure: FIGS. 4A-C. Examination of nested nanoparticle release kinetics. 4A. […] 4B. […] 4C.
Fluorophore release was determined according to a previously published procedure (Woodrow et al., 2009). Absorbance of bodipy and rhodamine were detected using the Synergy H4 Hybrid Reader as described above. In a separate study, nanoparticles were centrifuged at predetermined timepoints, resuspended in water, and the surface charge determined via zeta potential analysis, as described above.

[3] = tested on: MCF-7 breast tumor xenografts; test: In vivo accumulation and release of nested nanoparticles in breast tumors
Procedure: MCF-7 cells (5×10^6) were inoculated in the mammary fat pads of 4- to 6-week-old female nu/nu mice. Mice were implanted with 17β-estradiol pellets subcutaneously. Nanoparticles were administered intravenously and at predetermined timepoints, the mouse was sacrificed and the tumor harvested. Tumor tissues were frozen and sectioned into 7 μm tissue slices using an HM 550 Cryostat (Thermo Fischer Scientific, Waltham, Mass., USA). Tissues were fixed and stained with 4% methanol-free paraformaldehyde for 20 min. Following fixation, samples were washed with PBS. Slides were mounted and tissues imaged using confocal microscopy as previously described. The presence of fluorescence over time, surface intensity plots, and area fraction of the tissue sections were examined using Nikon Elements v4.1 software. For area fraction analysis, the fluorescence emitted by bodipy and rhodamine was obtained from 4 sections from different regions of the tumor (n=3). A ratiometric percentage of area fractions of both fluorophores were extracted from the total area of the image.

[4] = Release of rapamycin and paclitaxel from nested nanoparticles; assay type: physicochemical; settings: rapamycin in outer shell, paclitaxel in polymeric core
Source text: FIG. 14. Nested nanoparticles containing both rapamycin and paclitaxel release drug in a time and sequential fashion.

[5] = model parameter; from literature for rhodamine, approximated from literature for bodipy; cited from earlier work
[6] = initial timepoints leading up to 3 h, bodipy in QAβ-CD shell, rhodamine in PLGA core

With `O=C(COc1ccc(/C=C/C2=[N+]3C(=Cc4ccc(-c5cccs5)n4[B-]3(F)F)C=C2)cc1)NCCCCCC(=O)ON1C(=O)CCC1=O` [bodipy] as the molecule, how does the “Reduction of diffusivity inside material compared to that in water” value ([1]; rhodamine in PLGA matrix, bodipy in shell) read?
The value was 5 times.

What about the “Time after which release plateaus” value [2] of the same molecule?
The value was > 48 h.

What about the “Cumulative release from nested nanoparticles” value (shortened to “Cumulative release”) ([2]; by 6 h) of the same molecule?
The value was 34%.

What about the “Cumulative release” value ([2]; by 12 h) of the same molecule?
Its value is 50%.

What about the “Cumulative release” value [2, 6] of the same molecule?
Its value is 7%.

And the “Area fraction of fluorophore in tumor” value ([3]; mouse, in vivo, iv)?
The value was “ratiometrically similar amounts”.

And the “Area fraction: amount of fluorophore in tumor” value ([3]; mouse, in vivo, iv)?
The value was “decreased significantly”.

And the “Fluorophore in tumor tissue” value ([3]; mouse, in vivo, iv)?
The value was “marked decrease”.

Which “Release from nested nanoparticles” value [4] does the source give for `CC(=O)O[C@H]1C(=O)[C@@]2(C)[C@H]([C@H](OC(=O)c3ccccc3)[C@]3(O)C[C@H](OC(=O)[C@H](O)[C@@H](NC(=O)c4ccccc4)c4ccccc4)C(C)=C1C3(C)C)[C@]1(OC(C)=O)CO[C@@H]1C[C@@H]2O` [paclitaxel] here?
Its value is “slow and prolonged release”.

For Rhodamine, which “Dwater (diffusivity in water)” value [5] is on record?
The value was 4.10^−6 cm^2/s.

What about the “Time after which rhodamine flux overtook the flux of bodipy” value ([1]; fluxes of release from nested nanoparticles) of the same molecule?
Its value is > 24 h.

What about the “Diffusivity inside the PLGA nanoparticle matrix” value ([1]; model estimate) of the same molecule?
The value was 4×10^−10 cm2/s.

And the “Cumulative release” value ([2]; "by this same timepoint" (12 h or 48 h, not clear))?
Its value is ~6%.

And the “Cumulative release” value ([2]; in 96 h)?
Its value is 34%.

What about the “Cumulative release” value [2, 6] of the same molecule?
The value was 3%.

And the “Area fraction of fluorophore in tumor” value ([3]; 3 h after intravenous nested nanoparticles)?
Its value is “ratiometrically similar amounts”.

And the “Area fraction: amount of fluorophore in tumor” value ([3]; 96 h after intravenous nested nanoparticles)?
Its value is “increase”.
